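In this assay, cells in 96-well plates receive the compound at five concentrations for 48 hours. Endpoints are linearly interpolated between the surrounding concentrations. GI50 = concentration required for 50% inhibition of growth. Definition used: TGI = concentration required for complete inhibition of growth.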

This test deals with MDA-MB-468 breast. Kind of test: NCI-60 cell line screen, 48 h.

For the molecule `CN1CCN(c2ccc(NC(=O)Nc3ccc4c(ccn4-c4cccc(C(N)=O)n4)c3)cc2C(F)(F)F)CC1`, the GI50 was 4.3 µM and the TGI came out at 12.1 µM.

Consider `COc1cc(/C=C/C(=O)c2nc3cc(F)ccc3nc2C)cc(OC)c1OC`, for which the GI50 is 2.75 µM and the TGI is above 100 µM.

For `Oc1ccc(CSc2nnc(-c3ccc(Oc4ccccc4)cc3)o2)c2cccnc12`, the GI50 is 1.76 µM and the TGI is above 100 µM.

For `C/C(=C\c1csc(C)n1)[C@@H]1C[C@@H]2O[C@]2(C)CCC[C@H](C)[C@H](O)[C@@H](C)C(=O)C(C)(C)[C@@H](O)CC(=O)N1`, the GI50 was 0.000233 µM and the TGI was determined as 0.00058 µM.

With `COc1ccc(-n2c(=O)c3ccccc3n(Cc3ccc(C(=O)NO)cc3)c2=O)cc1`, the GI50 is 1.44 µM and the TGI turned out to be 3.49 µM.

Take `CCN1CCN(CC(=O)Nc2nc3ccc(NCc4ccc(Br)cc4)cc3s2)CC1`: the GI50 was 1.74 µM and the TGI turned out to be 4.51 µM.

With `CC(C)c1ccc2c(c1)CCC1C2CCCC1(C)NCc1ccccc1` (stereo not given), the GI50 was 1.9 µM and the TGI is 4.16 µM.

Turning to `O=C1C[C@@H]2OCC=C3C[N+]4([O-])CC[C@]56c7ccccc7N1[C@H]5[C@H]2[C@H]3C[C@@H]64` (stereo not given in full), the GI50 was above 100 µM and the TGI is above 100 µM.

Consider `COc1cc(/C=C/c2cc(/C=C/c3ccc(O)c(OC)c3)n(C(=O)Nc3ccc(C)cc3)n2)ccc1O`, for which the GI50 is 0.301 µM and the TGI was determined as 1.71 µM.

As for `O=C(CCN1CCOCC1)Nc1ccc(Cn2nnc3c2C(=O)c2nnn(Cc4ccc(NC(=O)CCN5CCOCC5)cc4)c2C3=O)cc1`, the GI50 is 0.257 µM and the TGI is 0.627 µM.

For `Oc1ccc(CSc2nnc(-c3ccccc3)n2-c2ccccc2)c2cccnc12`, the GI50 was 0.497 µM and the TGI is 6.82 µM.

With `CCN1CCN(c2ccc(NC(=O)Nc3ccc4c(ccn4-c4ccnc(C(=O)NC)c4)c3)cc2C(F)(F)F)CC1`, the GI50 was above 14.3 µM and the TGI was above 14.3 µM.

`COc1ccccc1CNCCCN1C(=O)c2ccc3c4c(ccc(c24)C1=O)C(=O)N(CCCNCc1ccccc1OC)C3=O`: the GI50 is 0.138 µM and the TGI is 0.288 µM.

As for `O=c1c(Oc2ccc(F)cc2F)cc2cnc(NC3CCOCC3)nc2n1C1CC1`, the GI50 was above 25 µM and the TGI is above 25 µM.

On to `Cc1cccc(Oc2ccc(Nc3ncnc4ccc(NC(=O)CN(C)C)cc34)cc2Cl)c1`, for which the GI50 is 0.18 µM and the TGI worked out at 1.38 µM.

Take `FC(F)(F)c1cccc(CNC2CCN(CCc3ccccc3)CC2)c1`: the GI50 is 13.5 µM and the TGI came out at 30.2 µM.

For the molecule `CN(C)c1ccc(/C=N/N=C(\C#N)[S][Sn]([Cl])([c]2ccccc2)[c]2ccccc2)cc1`, the GI50 was 0.48 µM and the TGI amounted to 2 µM.

With `OCc1ccc(N2CCc3ccc(F)cc3C2)cc1Cl`, the GI50 is below 0.0129 µM and the TGI is 0.0351 µM.

With `CNCc1cccc2c1OCCOCCOCCNS(=O)(=O)c1ccc(cc1)-c1cnc(N)c(n1)C(=O)N2`, the GI50 is 1.51 µM and the TGI amounted to 3.25 µM.

As to `COc1ccc(-c2c(Nc3ccccn3)nc3c(C4=CCCCC4)c(-c4ccccc4)[nH]n3c2=O)cc1`, the GI50 is 1.91 µM and the TGI amounted to 8.65 µM.

Turning to `COc1cc(NC(=O)COc2ccccc2)c(C(N)=O)cc1OC`, the GI50 was 0.848 µM and the TGI turned out to be 72.1 µM.

`O=C(O)CSc1cc(NS(=O)(=O)c2ccc(Br)cc2)c2ccccc2c1O`: the GI50 is 1.87 µM and the TGI was determined as 4.34 µM.

Regarding `O=C1NC(=NCc2cccs2)O/C1=C\c1ccc2ncccc2c1`, the GI50 is 3.41 µM and the TGI stood at 13.9 µM.

With `O=C1[C@H](Cc2ccc(O)cc2)N2C(=O)CCN(C(=O)NCc3ccccc3)[C@H]2CN1Cc1cccc2ccccc12`, the GI50 is 5.66 µM and the TGI is 23.2 µM.

`CN1CCN(C(=O)/C=C/c2ccc([N+](=O)[O-])o2)CC1`: the GI50 was 12.1 µM and the TGI worked out at 28.5 µM.

Values taken from PubChem BioAssay (NCI).
